According to PubChem BioAssay (NCI):
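Assay format: 96-well plates, 48-hour exposure. At the GI50, growth is halved. TGI denotes the concentration required for complete inhibition of growth.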

Experiments:
Experiment in all cases: inhibition of tumour cell growth, NCI panel, 48 h
[1] = tested on: U251 CNS
[2] = tested on: LXFL 529 NSCLC
[3] = tested on: OVCAR-3 ovarian
[4] = tested on: DLD-1 colon
[5] = tested on: NCI-H226 lung
[6] = tested on: DMS 114 small cell lung
[7] = tested on: SK-MEL-28 melanoma
[8] = tested on: SF-539 CNS
[9] = tested on: KM12 colon
[10] = tested on: OVCAR-5 ovarian
[11] = tested on: HOP-18 NSCLC
[12] = tested on: M19-MEL melanoma
[13] = tested on: COLO 205 colon
[14] = tested on: HCC-2998 colon
[15] = tested on: SN12C renal
[16] = tested on: M14 melanoma
[17] = tested on: ACHN renal
[18] = tested on: MOLT-4 leukemia
[19] = tested on: MALME-3M melanoma
[20] = tested on: UACC-62 melanoma
[21] = tested on: HOP-62 NSCLC
[22] = tested on: CCRF-CEM leukemia
[23] = tested on: OVCAR-8 ovarian
[24] = tested on: HT29 colon
[25] = tested on: A549 NSCLC
[26] = tested on: SR leukemia
[27] = tested on: SF-295 CNS
[28] = tested on: NCI-H23 lung
[29] = tested on: SNB-75 CNS
[30] = tested on: KM20L2 colon
[31] = tested on: SF-268 CNS
[32] = tested on: SK-MEL-2 melanoma
[33] = tested on: SK-OV-3 ovarian
[34] = tested on: NCI-H522 lung
[35] = tested on: HCT-116 colon
[36] = tested on: HOP-92 NSCLC
[37] = tested on: IGROV1 ovarian
[38] = tested on: UACC-257 melanoma
[39] = tested on: 786-0 renal
[40] = tested on: HCT-15 colon
[41] = tested on: SNB-19 CNS
[42] = tested on: SW-620 colon
[43] = tested on: SNB-78 CNS
[44] = tested on: EKVX NSCLC
[45] = tested on: SK-MEL-5 melanoma
[46] = tested on: NCI-H460 lung
[47] = tested on: OVCAR-4 ovarian
[48] = tested on: XF 498 CNS
[49] = tested on: LOX IMVI melanoma
[50] = tested on: TK-10 renal
[51] = tested on: RXF 393 renal
[52] = tested on: A498 renal
[53] = tested on: DMS 273 small cell lung
[54] = tested on: UO-31 renal
[55] = tested on: K-562 leukemia
[56] = tested on: HL-60(TB) leukemia
[57] = tested on: RPMI-8226 leukemia
[58] = tested on: CAKI-1 renal

CCC[CH2][Sn]([CH2]CCC)([O]C(=O)Cc1ccc(F)cc1)[O]C(=O)Cc1ccc(F)cc1
GI50 [1]: 361 nM | TGI [1]: 1540 nM | GI50 [2]: 47.6 nM | TGI [2]: 202 nM | GI50 [3]: 1270 nM | TGI [3]: 2540 nM | GI50 [4]: 291 nM | TGI [4]: 1420 nM | GI50 [5]: 443 nM | TGI [5]: 1850 nM | GI50 [6]: 140 nM | TGI [6]: 393 nM | GI50 [7]: 396 nM | TGI [7]: 1680 nM | GI50 [8]: 1060 nM | TGI [8]: 2280 nM | GI50 [9]: 1710 nM | TGI [9]: 4030 nM | GI50 [10]: 1790 nM | TGI [10]: 3180 nM | GI50 [11]: 1670 nM | TGI [11]: 3050 nM | GI50 [12]: 295 nM | TGI [12]: 1650 nM | GI50 [13]: 679 nM | TGI [13]: 2000 nM | GI50 [14]: 1230 nM | TGI [14]: 2520 nM | GI50 [15]: 856 nM | TGI [15]: 2100 nM | GI50 [16]: 1060 nM | TGI [16]: 2260 nM | GI50 [17]: 756 nM | TGI [17]: 2010 nM | GI50 [18]: 124 nM | TGI [18]: 796 nM | GI50 [19]: 240 nM | TGI [19]: 1350 nM | GI50 [20]: 629 nM | TGI [20]: 1890 nM | GI50 [21]: 2380 nM | TGI [21]: 4080 nM | GI50 [22]: 36.2 nM | TGI [22]: 11900 nM | GI50 [23]: 917 nM | TGI [23]: 2130 nM | GI50 [24]: 1610 nM | TGI [24]: 3680 nM | GI50 [25]: 7000 nM | TGI [25]: 19900 nM | GI50 [26]: 196 nM | TGI [26]: 1860 nM | GI50 [27]: 1130 nM | TGI [27]: 2340 nM | GI50 [28]: 176 nM | TGI [28]: 1140 nM | GI50 [29]: 705 nM | TGI [29]: 2100 nM | GI50 [30]: 1880 nM | TGI [30]: 4690 nM | GI50 [31]: 450 nM | TGI [31]: 1750 nM | GI50 [32]: 355 nM | TGI [32]: 1480 nM | GI50 [33]: 2930 nM | TGI [33]: 7330 nM | GI50 [34]: 23.2 nM | TGI [34]: 149 nM | GI50 [35]: 657 nM | TGI [35]: 1970 nM | GI50 [36]: 1020 nM | TGI [36]: 2200 nM | GI50 [37]: 1340 nM | TGI [37]: 2790 nM | GI50 [38]: 603 nM | TGI [38]: 1990 nM | GI50 [39]: 505 nM | TGI [39]: 1720 nM | GI50 [40]: 1040 nM | TGI [40]: 2230 nM | GI50 [41]: 1360 nM | TGI [41]: 2650 nM | GI50 [42]: 206 nM | TGI [42]: 1130 nM | GI50 [43]: 284 nM | TGI [43]: 1570 nM | GI50 [44]: 777 nM | TGI [44]: 2090 nM | GI50 [45]: 1080 nM | TGI [45]: 2270 nM | GI50 [46]: 2270 nM | TGI [46]: 5850 nM | GI50 [47]: 1680 nM | TGI [47]: 3130 nM | GI50 [48]: 1080 nM | TGI [48]: 2290 nM | GI50 [49]: 279 nM | TGI [49]: 1270 nM | GI50 [50]: 1030 nM | TGI [50]: 2210 nM | GI50 [51]: 145 nM | TGI [51]: 695 nM | GI50 [52]: 573 nM | TGI [52]: 1860 nM | GI50 [53]: 1040 nM | TGI [53]: 2220 nM | GI50 [54]: 1430 nM | TGI [54]: 2750 nM | GI50 [55]: 53.5 nM | TGI [55]: 580 nM

COc1ccc(C23c4ccc(OC)cc4CC2(c2ccc([N+](=O)[O-])cc2)Cc2cc(OC)ccc23)cc1 (stereo unspecified)
TGI [1]: > 100000 nM | TGI [2]: > 100000 nM | TGI [3]: > 100000 nM | TGI [4]: > 100000 nM | TGI [5]: > 100000 nM | TGI [6]: > 100000 nM | TGI [7]: > 55100 nM | TGI [56]: > 100000 nM | TGI [8]: > 74500 nM | TGI [9]: > 100000 nM | TGI [57]: > 100000 nM | TGI [10]: > 85400 nM | TGI [11]: 30800 nM | TGI [12]: > 88200 nM | TGI [13]: > 52100 nM | TGI [14]: > 73000 nM | TGI [15]: > 100000 nM | TGI [16]: > 100000 nM | TGI [17]: > 100000 nM | TGI [18]: > 69200 nM | TGI [19]: > 68400 nM | TGI [20]: > 41700 nM | TGI [21]: > 88000 nM | TGI [22]: > 100000 nM | TGI [23]: > 100000 nM | TGI [24]: > 100000 nM | TGI [25]: > 100000 nM | TGI [27]: > 100000 nM | TGI [28]: > 79300 nM | TGI [29]: > 100000 nM | TGI [30]: > 44900 nM | TGI [31]: > 56900 nM | TGI [32]: > 100000 nM | TGI [33]: > 100000 nM | TGI [34]: > 100000 nM | TGI [35]: > 100000 nM | TGI [36]: > 44600 nM | TGI [37]: > 81600 nM | TGI [38]: > 100000 nM | TGI [39]: > 100000 nM | TGI [40]: > 100000 nM | TGI [41]: > 100000 nM | TGI [42]: > 100000 nM | TGI [43]: > 100000 nM | TGI [58]: > 100000 nM | TGI [44]: > 37900 nM | TGI [45]: > 40200 nM | TGI [46]: > 100000 nM | TGI [47]: > 100000 nM | TGI [48]: > 100000 nM | TGI [49]: > 100000 nM | TGI [50]: > 100000 nM | TGI [52]: > 100000 nM | TGI [53]: > 100000 nM | TGI [54]: > 77400 nM | TGI [55]: > 100000 nM
